Source: patent publication US20150306154A1, “STRAINS AND METHODS USEFUL FOR MYCOTOXINS” (DuPont Nutrition Biosciences ApS, priority 2011, published 2015)
Read-outs that look alike come from different tables or passages of the source.

Columns and labels:
nursery pigs = conditions: 3 ppm DON in diet, 7 days
IPEC-J2 cells = type: cell-based, porcine; conditions: relative to unstimulated IPEC-J2 cells

Compound	ADFI (nursery pigs; Non-Responders) [kg]	ADG (nursery pigs; Non-Responders) [kg]	G:F (nursery pigs; Non-Responders)	ADFI (nursery pigs; Responders) [kg]	ADG (nursery pigs; Responders) [kg]	G:F (nursery pigs; Responders)	IL-6 gene expression fold change (IPEC-J2 cells; DON 10 ng/mL) [fold]	IL-8 gene expression fold change (IPEC-J2 cells; DON 10 ng/mL) [fold]	TNF-α gene expression fold change (IPEC-J2 cells; LPS/DON)	IL-6 gene expression fold change (IPEC-J2 cells; LPS 10 ng/mL) [fold]	IL-8 gene expression fold change (IPEC-J2 cells; LPS 10 ng/mL) [fold]	TNF-α gene expression fold change (IPEC-J2 cells; LPS 10 ng/mL) [fold]
CC1=C[C@H]2O[C@@H]3[C@H](O)C[C@](C)([C@@]2(CO)[C@H](O)C1=O)[C@]31CO1 [DON, deoxynivalenol]	0.71	0.46	0.64	0.42	0.26	0.61	−0.86	0.56	about 5 fold	–	–	–
lipopolysaccharide [LPS]	–	–	–	–	–	–	–	–	–	0.29	0.88	0.16
